Measured values from patent US20060153782A1, “Skin photoageing and actinic damage treatment” (Novogen Research Pty Ltd, priority 2002, published 2006).

Tests used:
CPD+ve epidermal cells = test: Cyclobutane pyrimidine dimers (CPD) in UV-irradiated human skin; format: in vivo; conditions: human subject; equol treated skin post-UVR compared with vehicle-only treated skin
Excerpt: The formation of CPD's, which occurs immediately on UV exposure (Viv Reeve, pers comm) would be unaffected by any therapeutic agent applied post-UVR. However, the rate of repair of CPDs might be increased by equol. If this occurred, fewer CPDs in equol treated skin compared with the number in vehicle-only treated skin would be observed. [drawing 5] Equol (CAS No. 531-95-3)

skin thickness = test: Skin thickness of hairless mice after chronic UV exposure; format: in vivo; conditions: hairless mice treated either before or after chronic UV exposure, vs non-treated mice
Excerpt: Increased skin thickness may be associated with wrinkles, capillary dilation in skin and skin dryness, as well as actinic damage.

SMILES	percentage of CPD+ve epidermal cells (CPD+ve epidermal cells)	skin thickness (skin thickness)
Oc1ccc(C2COc3cc(O)ccc3C2)cc1 (stereo not drawn) [equol, Equol]	lower percentage of CPD+ve epidermal cells	decreased skin thickness
Oc1ccc(C2=Cc3ccc(O)cc3OC2)cc1 [dehydroequol]	–	decreased skin thickness
